Measurements: patent publication US20090118253A1, “COMPOSITIONS AND METHODS FOR TREATING DYSFUNCTIONAL UTERINE BLEEDING” (REPROS THERAPEUTICS INC., priority 2007, published 2009)

Key:
[1] = tested on: progesterone-induced endometrial glandular proliferation in rabbit uterus; experiment: anti-McGinty and anti-Clauberg assays in the rabbit uterus; type: in vivo; conditions: average of anti-McGinty and anti-Clauberg results relative to CDB-2914 (=1.00)
Source text: Also given in Table 1 are the relative biological activities of the same compounds in the rabbit uterus by the anti-McGinty and anti-Clauberg assays. Compound CDB-2914 (listed at the end of the Table) was used as the control or reference compound (rabbit Biological Activity=1.00) for these experiments because results of experiments using CDB-2914 have been published before (Hild-Petito et al., 1996; Passaro et al., 1997; Reel et al., 1998; Lamer et al., 2000). For the anti-McGinty test, immature female rabbits received a subcutaneous injection of 5 μg estradiol in 10% ethanol/sesame oil daily for 6 consecutive days. On day 7, animals underwent sterile abdominal surgery to ligate a 3-4 cm segment of both uterine horns. The test compound in appropriate solvent was injected intraluminally into the ligated segment of one uterine horn and vehicle alone into the other. A stimulating dose of progesterone (267 μg/day) was administered subcutaneously to each rabbit daily for the next three days to induce endometrial proliferation. All animals were sacrificed at day 10 for removal of the uterus where a segment central to the ligatures was removed and fixed in 10% neutral buffered formalin and submitted for histological processing. Five micron sections stained with hematoxylin and cosin were evaluated microscopically for the degree of endometrial glandular proliferation. The percent inhibition of endometrial proliferation for each rabbit was calculated and the mean of the group of five animals recorded. For the Anti-Clauberg test, immature female rabbits received a subcutaneous injection of 5 μg estradiol in 10% ethanol/sesame oil daily for 6 consecutive days. On day 7, animals received progesterone by subcutaneous injection (160 μg/day) and the experimental compound in appropriate vehicle orally or subcutaneously for five consecutive days. One group of rabbits received progesterone only. Twenty-four hours after the last dose, all animals were sacrificed for removal of the uterus which was cleaned of all fat and connective tissue, weighed to the nearest 0.2 mg and placed in 10% neutral buffered formalin for subsequent histological processing. Five micron sections stained with hematoxylin and eosin were evaluated microscopically for the degree of endometrial glandular proliferation. The percent inhibition of endometrial proliferation at each dose level of the test compound was derived by comparison with progesterone-stimulated animals alone. The data presented in Table 1 (rabbit Biol. Act.) reflects the average of the results obtained for each compound by the anti-McGinty and anti-Clauberg assays relative to CDB-2914.

[2] = tested on: rabbit progesterone receptor (rbPR) and glucocorticoid receptor (rbGR); experiment: Receptor-binding assays, ratio of relative binding affinities rbPR/rbGR; conditions: ratio of relative binding affinities (RBA = EC50 of standard/EC50 of test compound x 100) for rbPR and rbGR
Protocol: Certain antiprogestins were tested in receptor-binding assays for their ability to bind rabbit progesterone receptor (rbPR) and glucocorticoid receptor (rbGR). Briefly, cytosol containing PR or GR were prepared in TEGMD buffer (10 mM Tris, pH 7.2, 1.5 mM EDTA, 0.2 mM sodium molybdate, 10% glycerol, 1 mM DTT) from uterus or thymus, respectively, of estradiol-primed immature rabbits. For PR binding, the cytosol was incubated with 6 nM 1,2-[^3H]progesterone (50.0 Ci/mmole) and competitors were added at concentrations from 2 to 100 nM. For binding to GR, the cytosol was incubated with 6 nM 6,7-[^3H]-dexamethasone (40 Ci/mmol) and test compounds were added at concentrations from 20 to 100 nM. After overnight incubation at 4 C, bound and unbound [^3H] steroids were separated by addition of dextran-coated charcoal and centrifugation at 2100×g for 15 min at 4 C. Supernatants containing the [3H]-steroid receptor complexes were decanted into vials containing 4 ml Optifluor (Packard Instrument Co.), vortexed, equilibrated in a liquid scintillation counter for 30 minutes and then counted for 2 minutes. The EC50 (Effective Concentration) for each standard curve and each of the compound curves was determined by entering the counting data into a four parameter sigmoidal computer program (RiaSmart® Immunoassay Data Reduction Program, Packard Instrument Co., Meriden, Conn.). Relative binding affinity (RBA) for each compound was calculated using the following equation: EC50 of standard/EC50 of test compound×100. The standards for the PR and GR assays were unlabeled progesterone and dexamethasone, respectively. The results of these experiments are summarized in Table 1, as a ratio of the relative binding affinities of each compound for the rbPR and rbGR receptors (rbPR/rbGR).

| Compound | rabbit Biol. Act. [1] | rbPR/rbGR [2] |
| --- | --- | --- |
| CC(=O)O[C@]1(C(=O)C[S+](C)[O-])CCC2C3CCC4=CC(=O)CCC4=C3C(c3ccc(N(C)C)cc3)C[C@@]21C (stereo partly drawn) [CDB-4101, 21-methoxythio-17α-acetoxy-11β-(4 N,N-dimethylaminophenyl)-19-norpregna-4,9-diene-3,20-dione] | 0.65 | 0.61 |
| CC(=O)O[C@]1(C(=O)CO)CCC2C3CCC4=CC(=O)CCC4=C3C(c3ccc(N(C)C)cc3)C[C@@]21C (stereo partly drawn) [CDB-4152, 21-hydroxy-17α-acetoxy-11β-(4 N,N-dimethylaminophenyl)-19-norpregna-4,9-diene-3,20-dione] | 1.40 | 0.82 |
| CC(=O)O[C@]1(C(=O)CSC#N)CCC2C3CCC4=CC(=O)CCC4=C3C(c3ccc(N(C)C)cc3)C[C@@]21C (stereo partly drawn) [CDB-4352, 21-cyanothio-17α-acetoxy-11β-(4 N,N-dimethylaminophenyl)-19 norpregna-4,9-diene-3,20-dione] | 0.57 | 4.21 |
| CCC(=O)[C@@]1(OC(C)=O)CCC2C3CCC4=CC(=O)CCC4=C3C(c3ccc(N(C)C)cc3)C[C@@]21C (stereo partly drawn) [CDB-4030, 21-methyl-17α-acetoxy-11β-(4 N,N-dimethylaminophenyl)-19-norpregna-4,9-diene-3,20-dione] | 0.30 | 0.96 |
| CC(=O)OCC(=O)C1(OC(C)=O)CCC2C3CCC4=CC(=NO)CCC4=C3C(c3ccc(N(C)C)cc3)C[C@@]21C (stereo partly drawn) [CDB-4206, 3-hydroxyamino-21-acetoxy-17α-acetoxy-11β-(4 N,N-dimethylaminophenyl)-19-norpregna-4,9-diene-3,20-dione] | 0.68 | 1.44 |
| 2 11-(Cyp*-hydroxy)-17α-acetoxy-11β-(4 N,N-dimethylaminophenyl)-19-norpregna-4,9-diene-3,20-dione [CDB-4125] | 1.55 | 1.19 |
| CCOCC(=O)C1(OC(C)=O)CCC2C3CCC4=CC(=NO)CCC4=C3C(c3ccc(N(C)C)cc3)C[C@@]21C (stereo partly drawn) [CDB-4226, 3-hydroxyamino-21-ethyloxy-17α-acetoxy-11β-(4 N,N-dimethylaminophenyl)-19-norpregna-4,9-diene-3,20-dione] | 0.54 | 1.51 |
| COCC(=O)[C@@]1(OC(C)=O)CCC2C3CCC4=C(C(=O)c5ccccc5)C(=O)CCC4=C3C(c3ccc(N(C)C)cc3)C[C@@]21C (stereo partly drawn) [CDB-4239, 4-benzoin-21-methoxy-17α-acetoxy-11β-(4 N,N-dimethylaminophenyl)-19-norpregna-4,9-diene-3,20-dione] | 0.60 | 14.80 |
| C=COCC(=O)[C@@]1(OC(C)=O)CCC2C3CCC4=CC(=O)CCC4=C3C(c3ccc(N(C)C)cc3)C[C@@]21C (stereo partly drawn) [CDB-4361, 21-vinyl ether-17α-acetoxy-11β-(4 N,N-dimethylaminophenyl)-19-norpregna-4,9-diene-3,20-dione] | 3.03 | 7.20 |
| CC(=O)O[C@]1(C(=O)CSC(C)=O)CCC2C3CCC4=C(C(=O)c5ccccc5)C(=O)CCC4=C3C(c3ccc(N(C)C)cc3)C[C@@]21C (stereo partly drawn) [CDB-4119, 4-benzoin-21-acetylthio-17α-acetoxy-11β-(4 N,N-dimethylaminophenyl)-19-norpregna-4,9-diene-3,20-dione] | 0.10 | 2.60 |
| CC(=O)O[C@]1(C2COC(C)(C)O2)CCC2C3CCC4=CC(=O)CCC4=C3C(c3ccc(N(C)C)cc3)C[C@@]21C (stereo partly drawn) [CDB-4110, 21-acetonide-17α-acetoxy-11β-(4 N,N-dimethylaminophenyl)-19-norpregna-4,9-diene-3,20-dione] | 0.10 | 0.70 |
| CCOCC(=O)[C@@]1(OC(C)=O)CCC2C3CCC4=CC(=O)CCC4=C3C(c3ccc(N(C)C)cc3)C[C@@]21C (stereo partly drawn) [CDB-4167, 21-ethyloxy-17α-acetoxy-11β-(4 N,N-dimethylaminophenyl)-19-norpregna-4,9-diene-3,20-dione] | 1.50 | 1.69 |
| CSCC(=O)[C@@]1(OC(C)=O)CCC2C3CCC4=CC(=O)CCC4=C3C(c3ccc(N(C)C)cc3)C[C@@]21C (stereo partly drawn) [CDB-4223, 21-methylthio-17α-acetoxy-11β-(4 N,N-dimethylaminophenyl)-19-norpregna-4,9-diene-3,20-dione] |  | 1.17 |
| CC(=O)O[C@]1(C(=O)CBr)CCC2C3CCC4=CC(=O)CCC4=C3C(c3ccc(N(C)C)cc3)C[C@@]21C (stereo partly drawn) [CDB-4031, 21-bromine-17α-acetoxy-11β-(4 N,N-dimethylaminophenyl)-19-norpregna-4,9-diene-3,20-dione] | 0.70 | 0.69 |
| 21-methoxyacetyl-17α-acetoxy-11β-(4 N,N-dimethylaminophenyl)-19-norpregna-4,9-diene-3,20-dione [CDB-4362] | 1.25 | 4.74 |
| CCC(=O)OCC(=O)[C@@]1(OC(C)=O)CCC2C3CCC4=CC(=O)CCC4=C3C(c3ccc(N(C)C)cc3)C[C@@]21C (stereo partly drawn) [CDB-4247, 21-propio[1]nyloxy-17α-acetoxy-1 1β-(4 N,N-dimethylaminophenyl)-19-norpregna-4,9-diene-3,20-dione] | 1.70 | 2.06 |
| CC(=O)O[C@]1(C(=O)CF)CCC2C3CCC4=CC(=O)CCC4=C3C(c3ccc(N(C)C)cc3)C[C@@]21C (stereo partly drawn) [CDB-4058, 21-flourine-17α-acetoxy-11β-(4 N,N-dimethylaminophenyl)-19-norpregna-4,9-diene-3,20-dione] | 0.90 | 1.08 |
| CC(=O)O[C@]1(C(=O)COC(=O)CN)CCC2C3CCC4=CC(=O)CCC4=C3C(c3ccc(N(C)C)cc3)C[C@@]21C (stereo partly drawn) [CDB-4306, 21-glycinate-17α-acetoxy-11β-(4 N,N-dimethylaminophenyl)-19-norpregna-4,9-diene-3,20-dione] | 0.95 | 5.90 |
| COCC(=O)C1(OC(C)=O)CCC2C3CCC4=CC(=NO)CCC4=C3C(c3ccc(N(C)C)cc3)C[C@@]21C (stereo partly drawn) [CDB-4205, 3-hydroxyamino-2 1-methoxy-17α-acetoxy-11β-(4 N,N-dimethylaminophenyl)-19-norpregna-4,9-diene-3,20-dione] | 1.00 | 1.99 |
| 21-BMD-17α-acetoxy-11β-(4 N,N-dimethylaminophenyl)-19-norpregna-4,9-diene-3,20-dione [CDB-4111] | 0.36 | 1.30 |
